Test system: P12-Ichikawa
Assay: cell viability relative to DMSO control; higher = less cytotoxic
Conditions: 48 h
In short: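 Cells were incubated for 48 h at 37°C before CellTiter-Glo One luminescence was read. The cells were NOMO1 or SEM (500 cells/well) or P12-Ichikawa (1000 cells/well) leukemia cells, adapted for at least four passages in each medium and seeded in 1536-well plates (5 μl). Dosing used library compounds in DMSO applied by pin over 11 threefold points, 47 μM to 0.79 nM. Viability is the per-plate percentage of DMSO wells, with cell-free wells as background.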

[1] = HPLM + 10% dialyzed FBS, 0.000781 µM
[2] = HPLM + 10% dialyzed FBS, 0.00234 µM
[3] = HPLM + 10% dialyzed FBS, 0.00702 µM
[4] = HPLM + 10% dialyzed FBS, 0.0211 µM
[5] = HPLM + 10% dialyzed FBS, 0.0632 µM
[6] = HPLM + 10% dialyzed FBS, 0.19 µM
[7] = HPLM + 10% dialyzed FBS, 0.569 µM
[8] = HPLM + 10% dialyzed FBS, 1.71 µM
[9] = HPLM + 10% dialyzed FBS, 5.12 µM
[10] = HPLM + 10% dialyzed FBS, 15.4 µM
[11] = HPLM + 10% dialyzed FBS, 46.1 µM
[12] = RPMI 5 mM glucose + 10% FBS, 0.000781 µM
[13] = RPMI 5 mM glucose + 10% FBS, 0.00234 µM
[14] = RPMI 5 mM glucose + 10% FBS, 0.00702 µM
[15] = RPMI 5 mM glucose + 10% FBS, 0.0211 µM
[16] = RPMI 5 mM glucose + 10% FBS, 0.0632 µM
[17] = RPMI 5 mM glucose + 10% FBS, 0.19 µM
[18] = RPMI 5 mM glucose + 10% FBS, 0.569 µM
[19] = RPMI 5 mM glucose + 10% FBS, 1.71 µM
[20] = RPMI 5 mM glucose + 10% FBS, 5.12 µM
[21] = RPMI 5 mM glucose + 10% FBS, 15.4 µM
[22] = RPMI 5 mM glucose + 10% FBS, 46.1 µM
[23] = RPMI 5 mM glucose + 10% dialyzed FBS, 0.000781 µM
[24] = RPMI 5 mM glucose + 10% dialyzed FBS, 0.00234 µM
[25] = RPMI 5 mM glucose + 10% dialyzed FBS, 0.00702 µM
[26] = RPMI 5 mM glucose + 10% dialyzed FBS, 0.0211 µM
[27] = RPMI 5 mM glucose + 10% dialyzed FBS, 0.0632 µM
[28] = RPMI 5 mM glucose + 10% dialyzed FBS, 0.19 µM
[29] = RPMI 5 mM glucose + 10% dialyzed FBS, 0.569 µM
[30] = RPMI 5 mM glucose + 10% dialyzed FBS, 1.71 µM
[31] = RPMI 5 mM glucose + 10% dialyzed FBS, 5.12 µM
[32] = RPMI 5 mM glucose + 10% dialyzed FBS, 15.4 µM
[33] = RPMI 5 mM glucose + 10% dialyzed FBS, 46.1 µM

| SMILES | cell viability [1] [%] | cell viability [2] [%] | cell viability [3] [%] | cell viability [4] [%] | cell viability [5] [%] | cell viability [6] [%] | cell viability [7] [%] | cell viability [8] [%] | cell viability [9] [%] | cell viability [10] [%] | cell viability [11] [%] | cell viability [12] [%] | cell viability [13] [%] | cell viability [14] [%] | cell viability [15] [%] | cell viability [16] [%] | cell viability [17] [%] | cell viability [18] [%] | cell viability [19] [%] | cell viability [20] [%] | cell viability [21] [%] | cell viability [22] [%] | cell viability [23] [%] | cell viability [24] [%] | cell viability [25] [%] | cell viability [26] [%] | cell viability [27] [%] | cell viability [28] [%] | cell viability [29] [%] | cell viability [30] [%] | cell viability [31] [%] | cell viability [32] [%] | cell viability [33] [%] |
| --- | --- | --- | --- | --- | --- | --- | --- | --- | --- | --- | --- | --- | --- | --- | --- | --- | --- | --- | --- | --- | --- | --- | --- | --- | --- | --- | --- | --- | --- | --- | --- | --- | --- |
| N#CC1(c2cccc(C(=O)Nc3cc(Oc4ccc5nc(NC(=O)C6CC6)sc5n4)ccc3F)c2Cl)CC1 | 114 | 111 | 115 | 115 | 112 | 108 | 97 | 72.8 | 66.7 | 29 | 21.1 | 110 | 114 | 110 | 108 | 108 | 106 | 81.2 | 74.7 | 59.3 | 34.3 | 13.4 | 105 | 113 | 118 | 117 | 115 | 115 | 90.5 | 69 | 57.6 | 38.7 | 23.7 |
| NC(=O)N1CCC(CC(=O)N2CCC([C@H]3c4ncc(Br)cc4CCc4cc(Cl)cc(Br)c43)CC2)CC1 | 107 | 116 | 114 | 114 | 114 | 108 | 96.9 | 95.2 | 78.6 | 71.9 | 52.9 | 107 | 104 | 125 | 121 | 117 | 106 | 87.6 | 85.9 | 75.4 | 62.9 | 42.5 | 108 | 108 | 118 | 112 | 109 | 110 | 94.6 | 90 | 78.9 | 69.7 | 42.2 |
| Cc1cccc(-c2[nH]c(C(C)(C)C)nc2-c2ccc3nccnc3c2)n1 | 120 | 124 | 124 | 126 | 125 | 120 | 118 | 110 | 112 | 112 | 48 | 122 | 122 | 115 | 116 | 124 | 121 | 108 | 119 | 106 | 106 | 81.4 |  |  |  |  |  |  |  |  |  |  |  |
| CC(C)[C@H](O)C(=O)N[C@@H](C)C(=O)N[C@@H]1C(=O)N(C)CCc2ccccc21 | 112 | 114 | 111 | 112 | 115 | 108 | 102 | 90.7 | 110 | 91.4 | 90.7 | 114 | 123 | 122 | 109 | 119 | 116 | 104 | 113 | 106 | 97.7 | 105 | 116 | 113 | 113 | 105 | 96.6 | 106 | 102 | 99.6 | 94.6 | 98.8 | 92.7 |
| CCCCCN(C)CCC(O)(P(=O)([O-])O)P(=O)(O)O | 88 | 88.1 | 87.1 | 96 | 95 | 97.6 | 99.5 | 92.9 | 93.4 | 99.2 | 92.4 | 81.4 | 86.5 | 91.3 | 95.6 | 85.8 | 86.6 | 94 | 89.7 | 91.3 | 92.6 | 83.4 | 79 | 85.2 | 81.1 | 95.3 | 88.9 | 84.5 | 88.9 | 79.4 | 86.1 | 87.8 | 86.9 |
| CC1=CC/2=C(C=C1C)N(C[C@@H](O)[C@@H](O)[C@@H](O)CO)C/3=N/C(=O)NC(=O)C3=N2 | 118 | 123 | 117 | 116 | 120 | 129 | 113 | 109 | 115 | 103 | 107 |  |  |  |  |  |  |  |  |  |  |  | 122 | 122 | 121 | 132 | 123 | 121 | 118 | 113 | 108 | 105 | 102 |
| Cc1noc(N[S+](=O)([O-])c2ccc(N)cc2)c1C | 99.4 | 106 | 104 | 112 | 115 | 109 | 111 | 114 | 109 | 102 | 117 | 85.2 | 102 | 97.6 | 91.2 | 99.8 | 105 | 98.1 | 94.1 | 102 | 96.8 | 100 | 92.4 | 90.5 | 99.5 | 89.7 | 106 | 106 | 108 | 99.3 | 101 | 94.1 | 98.9 |
| OC1=C(Cl)C=C(N\C2=C(\C(=O)NC2=O)C3=C(C=CC=C3)[N+]([O-])=O)C=C1 | 100 | 100 | 98.9 | 102 | 112 | 97.7 | 103 | 99.5 | 90.1 | 87.4 | 79.5 | 98.6 | 109 | 105 | 110 | 99.4 | 98.9 | 111 | 105 | 104 | 83.9 | 58.1 | 100 | 107 | 112 | 115 | 110 | 109 | 113 | 106 | 109 | 86.7 | 69.5 |
| NC(=O)c1nnn(Cc2cc(Cl)c(C(=O)c3ccc(Cl)cc3)c(Cl)c2)c1N |  |  |  |  |  |  |  |  |  |  |  | 122 | 137 | 122 | 130 | 128 | 128 | 136 | 120 | 120 | 122 | 70.9 | 122 | 128 | 122 | 134 | 123 | 119 | 131 | 121 | 109 | 118 | 68 |
| COCCCC/C(=N\OCCN)c1ccc(C(F)(F)F)cc1 | 98.4 | 87.1 | 91.2 | 91 | 94.9 | 80.8 | 74.4 | 85 | 80.9 | 72.2 | 63.5 | 83.5 | 81.8 | 91.7 | 79.8 | 95.8 | 72 | 62.2 | 83.2 | 80.3 | 67 | 41.9 | 79.8 | 80.7 | 76.9 | 84.6 | 84.4 | 80.3 | 77.9 | 78.8 | 74.5 | 77.2 | 52.7 |
| CCCC[S+](=N)([O-])CCC(N)C(=O)O (centres undefined) | 113 | 124 | 127 | 126 | 132 | 137 | 135 | 139 | 131 | 128 | 6.85 |  |  |  |  |  |  |  |  |  |  |  |  |  |  |  |  |  |  |  |  |  |  |
| Nc1nccc(-c2ccc3noc(-c4ccc(Cl)cc4)c3c2)n1 | 124 | 124 | 131 | 129 | 120 | 124 | 128 | 120 | 122 | 115 | 118 |  |  |  |  |  |  |  |  |  |  |  | 116 | 119 | 122 | 123 | 117 | 115 | 110 | 123 | 115 | 105 | 110 |
| CCn1c(C(=O)N(C2CC2)C2CC2)cc2c3c(ncn3C)c(Nc3cc(C)n(C)n3)nc21 | 88.3 | 99.8 | 99.5 | 104 | 109 | 117 | 110 | 108 | 107 | 107 | 86.5 | 92.7 | 116 | 108 | 108 | 118 | 107 | 111 | 110 | 105 | 112 | 91.7 | 90.4 | 100 | 97.6 | 96.4 | 102 | 97.2 | 98 | 98.6 | 102 | 107 | 87.6 |
| CCN(CC)CCCC(C)Nc1ccnc2cc(Cl)ccc12 (centres undefined) | 105 | 110 | 112 | 117 | 119 | 121 | 113 | 109 | 101 | 27.5 | 21 | 105 | 114 | 108 | 102 | 111 | 112 | 107 | 103 | 101 | 21.4 | 20.7 | 107 | 109 | 106 | 109 | 106 | 101 | 117 | 110 | 98.2 | 27.7 | 22 |
| CC(=O)OCC(=O)[C@@]1(O)CC[C@H]2[C@@H]3CCC/4=C/C(=O)/C=C\[C@]4(C)[C@H]3[C@@H](O)C[C@]12C | 120 | 128 | 123 | 126 | 102 | 85.3 | 95.7 | 72.1 | 66.4 | 118 | 109 |  |  |  |  |  |  |  |  |  |  |  | 117 | 118 | 121 | 130 | 92.5 | 77.4 | 100 | 50.8 | 43.8 | 109 | 102 |
| COc1ccc(/C=C/C(=O)Nc2ccccc2C(=O)O)cc1OC | 110 | 111 | 108 | 112 | 121 | 108 | 93.1 | 100 | 108 | 99.3 | 102 | 112 | 108 | 113 | 115 | 113 | 101 | 107 | 106 | 107 | 105 | 102 | 103 | 101 | 113 | 114 | 111 | 110 | 98.5 | 80.4 | 103 | 98.5 | 94.8 |
| CC(C)[C@]12O[C@H]1[C@@H]3O[C@@]34[C@@]5(C)CC\C6=C(COC6=O)/[C@@H]5C[C@@H]7O[C@]47[C@@H]2O | 97.5 | 9.15 | 6.65 | 7.98 | 9.04 | 8.65 | 9.22 | 8.95 | 8.4 | 6.67 | 4.18 | 102 | 16.6 | 8.24 | 5.66 | 7.99 | 8.04 | 7 | 6.95 | 5.74 | 4.33 | 2.61 | 101 | 10.6 | 8.79 | 7.77 | 9.01 | 8.98 | 9.99 | 9.74 | 9.21 | 6.99 | 5.18 |
